According to ChEMBL document CHEMBL1159265, “Bis(sulfato)-cyclosiphonodictyol A, a new disulfated sesquiterpene-hydroquinone from a deep water collection of the Marine sponge Siphonodictyon coralliphagum” (J Nat Prod, 1995):

Biological target: Leukotriene B4 receptor 1 (Homo sapiens, UniProt Q15722)
Assay: Displacement of [3H]LTB4 from LTB4 receptor in human neutrophils

Sequence of Leukotriene B4 receptor 1 (Q15722 whole entry): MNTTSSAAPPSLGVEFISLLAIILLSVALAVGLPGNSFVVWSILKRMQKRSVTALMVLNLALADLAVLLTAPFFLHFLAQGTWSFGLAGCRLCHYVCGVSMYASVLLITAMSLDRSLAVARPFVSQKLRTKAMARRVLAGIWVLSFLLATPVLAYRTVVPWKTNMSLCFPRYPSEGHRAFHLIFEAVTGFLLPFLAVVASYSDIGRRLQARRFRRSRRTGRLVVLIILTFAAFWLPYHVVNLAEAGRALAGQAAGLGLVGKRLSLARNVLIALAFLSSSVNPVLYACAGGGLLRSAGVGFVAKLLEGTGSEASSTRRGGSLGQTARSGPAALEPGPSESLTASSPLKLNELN

IC50: 44.5 µM
Compound: CC1(C)CCC[C@]2(C)[C@H]3Cc4c(OS(=O)(=O)O)ccc(OS(=O)(=O)O)c4CO[C@]3(C)CC[C@@H]12
